These results are taken from patent publication US9855273B2, “Combination therapy for MDS” (priority 2013, dated 2018).

Each structure is given as a SMILES string. Where two headings read alike, the source gives them in different places.

One experiment concerns the target IRAK1 (Homo sapiens, UniProt P51617). The note with it: Powers et al., 2006, cited from earlier work.
Experiment [1] concerns MDSL cells. The experiment can be described thus: MDSL xenograft, cells pre-treated in vitro, NSG mice. The class given is in vivo. As to the method: (§1) Xenograftment of NOD/SCID-IL2Rγ(NSG) and NSG-hSCF/hGM-CSF/hIL3 (NSGS) MDSL cells (1×10^6-5×10^6) were injected into the tail veins of 8-week old sublethally irradiated ([…]) NSG or NSG animals engineered to express human SCF, GM-CSF, and IL3 (NSGS) as previously described (Wunderlich et al., 2010). Mice were monitored by performing complete blood counts (Drew Hemavet 950FS). Following red cell lysis, human MDSL cells were identified by hCD45-FITC staining. In vivo delivery of IRAK-Inh approach is adapted from previous reports (Yang et al., 2011): IRAK-Inh was diluted in DMSO (5 mM) and further dissolved in sterile phosphate buffered saline (PBS; pH 7.2). Animals were injected i.p. with 2.12 mg/kg IRAK-Inh 3× weekly.
(§2) To determine whether IRAK-Inh can delay human MDS-like disease in vivo, MDSL were pre-treated with IRAK-Inh (10 μM) for 24 hrs in vitro and subsequently injected intravenously (i.v.) into NSG (5×10^6 cells) and NSGS (1×10^6 cells) recipient mice (FIG. 4A). This approach permitted us to evaluate the cell autonomous effect of IRAK-Inh on MDS cell viability and engraftment without altering endogenous IRAK1 function in the mouse.

For experiment [2], the system named is MDS/AML cell lines. In words: Colony formation in methylcellulose, MDS/AML cell lines. The class given is cell-based, human.
Experimental: The effect of IRAK-Inh on leukemic progenitor function was evaluated in methylcellulose containing IRAK-Inh. […] As an alternative approach, MDS/AML cells were pre-treated with IRAK-Inh for 24 hours and then plated in methylcellulose.
For experiment [3], the system named is MDSL cells. The experiment can be described thus: MDSL xenograft, cells pre-treated in vitro, NSGS mice. The class given is in vivo. As to the method:
as §1, §2
Moreover, we investigated whether combined IRAK1 and BCL2 inhibition could delay human MDS-like disease in vivo. MDSL cells were treated with IRAK-Inh (10 μM) and/or ABT-263 (0.1 μM) for 48 hrs in vitro and subsequently injected i.v. into NSGS mice (FIG. 4A).

The test system of another experiment is primary AML marrow cells. In words: Growth/viability of primary AML marrow cells. In kind it is cell-based, human.
In experiment [4] the test system is MDS/AML cell lines. The experiment can be described thus: AnnexinV apoptosis staining of MDS/AML cell lines. The class given is cell-based, human. The note with it: all cell lines, 48 hrs of treatment, 10 μM.
Experimental: Cells were stained after either drug treatment or lentiviral transduction with Annexin V (eBioscience) and propidium iodide (Sigma-Aldrich), or 7AAD (eBioscience) according to the manufacturer's instructions. Analysis was performed using BD FACSCalibur or FACSCanto flow cytometer with either CellQuest or Diva software.
In experiment [5] the test system is MDSL cells. The experiment can be described thus: MDSL xenograft, in vivo i.p. delivery after engraftment, NSG mice. As to the method: as §1
as §2, with “mouse. […] In addition, the human MDSL graft was reduced from 8% to 2% (FIG. 4D). Morphological assessment confirmed normal RBC and reduced MDS grafts in the peripheral blood and marrow of mice transplanted with IRAK-Inh-treated MDSL cells (FIG. 4E). […]” for “mouse.”

For experiment [6], the system named is normal cord blood-derived CD34+ cells. In words: Growth and viability of normal CD34+ cells. In kind it is cell-based, human. The note with it: even high doses. As to the method:
Acute myeloid leukemic cell lines, HL60, THP1, and TF-1 were purchased from the American Type Culture Collection. MOLM13 were purchased from AddexBio. The myelodysplastic cell line, MDS-L, was provided by Dr. Kaoru Tohyama (Kawasaki Medical School, Okayama, Japan) (Matsuoka et al., 2010). Cell-lines were cultured in RPMI 1640 medium with 10% FBS and 1% penicillin-streptomycin. Additionally, both the MDSL and TF-1 cell lines were cultured in the presence of 10 ng/mL human recombinant IL-3 (Stemcell Technologies). […] Human CD34+ UCB cells and primary MDS/AML cells were maintained in StemSpan Serum-Free Expansion Media (Stemcell Technologies) supplemented with 10 ng/mL of recombinant human stem cell factor (SCF), Flt3 ligand (Flt3L), thrombopoietin (TPO), IL-3, and IL-6 (Stemcell Technologies).

Chain of IRAK1 (P51617 whole entry, species assumed): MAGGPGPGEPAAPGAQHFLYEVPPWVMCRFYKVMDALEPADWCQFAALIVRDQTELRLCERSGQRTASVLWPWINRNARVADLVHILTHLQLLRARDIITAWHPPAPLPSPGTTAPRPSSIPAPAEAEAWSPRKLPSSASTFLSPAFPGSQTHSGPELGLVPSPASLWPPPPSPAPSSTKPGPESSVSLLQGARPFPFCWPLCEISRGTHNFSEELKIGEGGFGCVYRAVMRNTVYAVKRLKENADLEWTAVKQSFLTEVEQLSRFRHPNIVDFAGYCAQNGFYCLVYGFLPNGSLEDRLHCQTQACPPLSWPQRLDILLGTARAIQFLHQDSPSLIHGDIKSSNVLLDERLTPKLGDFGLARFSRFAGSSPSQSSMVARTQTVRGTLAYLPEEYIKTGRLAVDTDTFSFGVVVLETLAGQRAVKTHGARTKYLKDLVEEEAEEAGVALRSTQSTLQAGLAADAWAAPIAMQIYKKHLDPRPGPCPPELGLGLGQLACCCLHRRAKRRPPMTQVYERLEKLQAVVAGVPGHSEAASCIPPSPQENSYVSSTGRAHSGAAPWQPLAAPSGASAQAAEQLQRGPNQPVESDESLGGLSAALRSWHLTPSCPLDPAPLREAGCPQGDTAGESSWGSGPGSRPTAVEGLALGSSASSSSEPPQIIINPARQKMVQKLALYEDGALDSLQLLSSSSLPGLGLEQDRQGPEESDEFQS
Experimental for primary AML marrow cells: For in vitro growth assays, cell expansion in liquid culture was determined based on trypan blue exclusion using an automated cell counter (BioRad TC10). For experiments beyond 48 hrs, cells were replenished with fresh media and drug every second day. For primary patient marrow cells, cell were treated with a single inhibitor dose and counted 24 and 48 hours later.
AML patient samples were acquired following informed consent and under the direction of IRB approved protocols.

Turning to `O=C(Nc1nc2ccccc2n1CCN1CCOCC1)c1cccc([N+](=O)[O-])c1` [IRAK-Inh, N-(2-morpholinylethyl)-2-(3-nitrobenzoylamido)-benzimidazole], the IC50 was 300 nM at IRAK1 (read-out: IC50 IRAK1, FIG. 9A legend) and 750 nM at IRAK1 (read-out: IC50 IRAK1 kinase activity, Wang et al., 2009). Besides, the median survival in the experiment on MDSL cells [1] (MDSL pre-treated 10 μM 24 hrs, 5×10^6 cells i.v., control 68 days) was 80 days; in the experiment on MDSL cells [3] (MDSL pre-treated 10 μM 24 hrs, 1×10^6 cells i.v., control 29 days), 38 days; with MDSL cells [3] (MDSL treated in vitro with IRAK-Inh 10 μM and/or ABT-263 0.1 μM, DMSO 28 days), ~35 days. The “human MDSL graft” value with MDSL cells [1] (peripheral blood, 28 days post-transplant, control 8%) stood at 2%. In addition, in the experiment on MDS/AML cell lines [2] (all MDS/AML cells, continuous treatment), the “colony formation, methylcellulose containing inhibitor” value is “significantly fewer colonies”. Besides, the “colony formation after transient exposure” value in the experiment on MDS/AML cell lines [2] (pre-treated 24 hr, 10 μM, then plated) is listed as “significantly fewer colonies”. The “red blood cell numbers, hemoglobin, hematocrit and platelets” value in the experiment on MDSL cells [3] (mice transplanted with pre-treated MDSL cells) is listed as “significantly improved”. For the same molecule, the “growth of AML marrow cells” value in the experiment on primary AML marrow cells is “continued to grow similar to control-treated cells”. In the experiment with primary AML marrow cells, the “viability of primary AML marrow cells” value is “only modestly reduced”. Moreover, the apoptosis entry with MDS/AML cell lines [4] is recorded as “modest increase in apoptosis”. Besides, the “HCT and Hb levels” value with MDSL cells [5] (2.12 mg/kg i.p. 3×/week from day 6) was “maintained HCT and Hb levels”. In the experiment with MDSL cells [5] (within ~7 days of receiving 2.12 mg/kg i.p. 3×/week), the “human graft in peripheral blood (hCD45)” value is reported as “reduced human graft in the peripheral blood”. Besides, the “proliferation of normal CD34+ cells” value in experiment [6] is “not affected”.

For orientation: IC50 means the point on the concentration scale where inhibition reaches its midpoint.
